From patent US9932570B2 (priority 2015, dated 2018)
Non-standard residues stand in square brackets, D forms with d. Residues, ends and D or L forms follow the SMILES beside them. *: point of attachment. AFC = O=c1cc(C(F)(F)F)c2ccc(N*)cc2o1; AMC = Cc1cc(=O)oc2cc(N*)ccc12

Tested on: plasma proteases

Q: Which results are given for `CC(=O)N[C@@H](CCCNC(=N)N)C(=O)N[C@@H](CCCNC(=N)N)C(=O)N[C@@H](CCCCN)C(=O)N[C@@H](CCCCN)C(=O)N[C@H](C(=O)N[C@@H](Cc1ccc(O)cc1)C(=O)N1CCC[C@H]1C(=O)Nc1ccc2c(C)cc(=O)oc2c1)C(C)C` [LBL 10079] (Ac-RRKKVYP-{AMC})?
A: Cleavage / fluorescence in plasma in the absence of LF: dramatic increase in fluorescence; Specificity for LF: non-specifically cleaved by plasma proteases

Q: For `CC(=O)N[C@@H](CCCNC(=N)N)C(=O)N[C@H](CCCNC(=N)N)C(=O)N[C@H](CCCCN)C(=O)N[C@H](CCCCN)C(=O)N[C@H](C(=O)N[C@@H](Cc1ccc(O)cc1)C(=O)N1CCC[C@H]1C(=O)Nc1ccc2c(C)cc(=O)oc2c1)C(C)C` [LBL 10081] (Ac-R[dR][dK][dK]VYP-{AMC}), which “Cleavage / fluorescence in plasma in the absence of LF” value (“Cleavage / fluorescence in plasma” for short) is on record?
A: minimal increase in hydrolysis

Q: What about the “Hydrolysis in plasma without LF” value of the same compound?
A: minimal increase in hydrolysis

Q: And the “Specificity for LF” value?
A: specific for LF

Q: Which “Cleavage / fluorescence in plasma” value does the source give for `CC(=O)N[C@H](CCCNC(=N)N)C(=O)N[C@H](CCCNC(=N)N)C(=O)N[C@H](CCCCN)C(=O)N[C@H](CCCCN)C(=O)N[C@H](C(=O)N[C@@H](Cc1ccc(O)cc1)C(=O)N1CCC[C@H]1C(=O)Nc1ccc2c(C)cc(=O)oc2c1)C(C)C` [LBL 10097] (Ac-[dR][dR][dK][dK]VYP-{AMC}) here?
A: minimal increase in hydrolysis

Q: And the “Hydrolysis in plasma without LF” value?
A: minimal increase in hydrolysis

Q: What about the “Specificity for LF” value of the same compound?
A: specific for LF

Q: How did the “Cleavage / fluorescence in plasma” value turn out when `CC(=O)N[C@@H](CCCNC(=N)N)C(=O)N[C@H](CCCNC(=N)N)C(=O)N[C@H](CCCCN)C(=O)N[C@H](CCCCN)C(=O)N[C@H](C(=O)N[C@@H](Cc1ccc(O)cc1)C(=O)N1CCC[C@H]1C(=O)Nc1ccc2c(C(F)(F)F)cc(=O)oc2c1)C(C)C` [LBL 10108] (Ac-R[dR][dK][dK]VYP-{AFC}) was run?
A: neither peptide was cleaved
